Patent US11299485B2, “Thiophene derivative and use thereof” (FUJIMOTO CO., LTD., priority 2018, dated 2022)

Legend:
Type in all cases: cell-based
TNF-α production = test: Human TNF-α production suppression test (LPS-stimulated peripheral blood mononuclear cells, ELISA); settings: PBMC, compound 10 μg/mL, 24 hr, control well = 100, read-out: TNF-α production suppressive rate (%)
Procedure: Example 50: Human TNF-α Production Suppression Test
Peripheral blood of a healthy adult was collected in a vacuum blood collection tube (Terumo, containing EDTA/2Na), and then diluted two-fold with an equal volume of OTSUKA NORMAL SALINE (Otsuka Pharmaceutical Co., Ltd.). The diluted blood was mixed with Lymphoprep (AXIS-SHIELD) in half the volume of the diluted blood, dispensed into a 15 mL conical tube, and centrifuged at room temperature for 20 min (2,100 rpm). The mononuclear cells accumulated at the interface between Lymphoprep and plasma was transferred to a 50 mL conical tube, diluted with OTSUKA NORMAL SALINE, and the mononuclear cells suspension was centrifuged at room temperature for 10 min (1,150 rpm) and then the supernatant was removed. The mononuclear cells fraction obtained as a precipitate was suspended in an appropriate amount of 10% fetal calf serum (Thermo Fisher Scientific)-containing RPMI1640 medium (Thermo Fisher Scientific, hereinafter abbreviated as medium A), and diluted as appropriate with 0.4% trypan blue solution (Sigma-Aldrich Co. LLC.). The number of viable cells was counted with a hemocytometer (ERMA INC.). It was diluted with medium A such that the value obtained was 5×10^5 cells/mL. On the other hand, 75 μL of medium A, 5 μL of 0.4 mg/mL test compound solution (DMSO solution 10-fold diluted with medium A), and 20 μL of 10 μg/mL lipopolysaccharide (Sigma-Aldrich Co. LLC.) solution (diluted with medium A) were each added in advance to the same well of a Falcon 96-well flat bottom plate (Corning Incorporated), and the above-mentioned cell suspension was dispensed at 0.1 mL/well. 5 μL of DMSO diluted 10-fold with medium A was added to the control well instead of the compound solution. After culturing at 37° C. in a 5% CO2 stream for 24 hr, the culture solution was centrifuged at 4° C., 1,000 rpm for 3 min and the supernatant was recovered. The content of TNF-α in the supernatant was measured using an ELISA kit (Peprotech) according to a conventional method. The amount of TNF-α produced in the well containing the test compound was determined with the amount of TNF-α produced in the control well as 100, and the suppression rate was calculated for each test.

[1] = test system: human peripheral blood mononuclear cells (PBMC); test: Cytotoxicity test using human peripheral blood mononuclear cells (PBMC); settings: compound 10 μg/mL, LPS, 24 hr, WST-1 or WST-8
Procedure: Example 56: Cytotoxicity Test Using Human Peripheral Blood Mononuclear Cells (PBMC)
Peripheral blood of a healthy adult was collected in a Venoject II vacuum blood collection tube (Terumo, containing EDTA/2Na), and then diluted two-fold with an equal volume of OTSUKA NORMAL SALINE (Otsuka Pharmaceutical Co., Ltd.). The diluted blood was mixed with Lymphoprep (AXIS-SHIELD) in half the volume of the diluted blood, dispensed into a 15 mL conical tube, and centrifuged at room temperature for 20 min (2,100 rpm). The mononuclear cells accumulated at the interface between Lymphoprep and plasma was transferred to a 50 mL conical tube, diluted with OTSUKA NORMAL SALINE, and the mononuclear cells suspension was centrifuged at room temperature for 10 min (1,150 rpm) and then the supernatant was removed. The mononuclear cells fraction obtained as a precipitate was suspended in an appropriate amount of medium A, and diluted as appropriate with 0.4% trypan blue solution (Sigma-Aldrich Co. LLC.). The number of viable cells was counted with a hemocytometer (ERMA INC.). It was diluted with medium A such that the value obtained was 5×10^5 cells/mL. On the other hand, 37.5 μL of medium A, 2.5 μL of 0.4 mg/mL test compound solution (DMSO solution 10-fold diluted with medium A), and 10 μL of 10 μg/mL lipopolysaccharide (Sigma-Aldrich Co. LLC.) solution (diluted with medium A) were each added in advance to the same well of a Falcon 96-well flat bottom plate (Corning Incorporated), and the above-mentioned cell suspension was dispensed at 50 μL/well (final concentration of test compound 10 μg/mL). 2.5 μL of DMSO diluted 10-fold with medium A was added to the control well instead of the compound solution. After culturing at 37° C. in a 5% CO2 stream for 24 hr, the cell survival rate was measured using WST-1 (DOJINDO LABORATORIES) or WST-8 kit (KISHIDA CHEMICAL Co., Ltd.) and according to each instruction manual attached thereto.

MM.1S cells = test: Human myeloma cell line MM.1S proliferation suppression test; settings: MM1.S, 72 h, compound 10 μM, 3 days, WST-1 or WST-8, read-out: cell survival rate (% of control) MM.1S
Outline: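 Cells at 2×10^5 cells/mL in RPMI1640 + 10% FCS, mixed 1:1 with compound diluted from DMSO stock (final 10 μM) versus DMSO-only control. Cultured 3 days at 37 °C, 5% CO2; proliferation read with WST-1 or WST-8.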

REC-1 cells = test: Human mantle cell lymphoma cell line REC-1 proliferation suppression test; settings: Rec1, 72 h, compound 10 μM, 3 days, WST-8, read-out: cell survival rate (% of control) REC-1
Outline: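 Cells were plated at 1.3×10^5 cells/mL, and the next day test compound was added at a final 10 μM, with DMSO-only medium as control. After 3 days at 37° C under 5% CO2, proliferation was measured with WST-8.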

Row | Structure (SMILES) | inhibition at 10 µg/mL (TNF-α production) [%] | cell survival rate (% of control) PBMC [1] | viability at 10 µM (MM.1S cells) [%] | viability at 10 µM (REC-1 cells) [%]
1 | O=C1CCC(n2cc(-c3cscc3OCc3ccccc3)nn2)C(=O)N1 (stereo not shown) [compound 32, 3-{4-[4-(benzyloxy)thiophen-3-yl]-1H-1,2,3-triazol-1-yl}piperidine-2,6-dione] | 100 | 66 % of control | 27 | 15
2 | O=C1CCC(n2cc(-c3cscc3OCc3ccncc3)nn2)C(=O)N1 (stereo not shown) [compound 33, 3-{4-[4-(pyridin-4-ylmethoxy)thiophen-3-yl]-1H-1,2,3-triazol-1-yl}piperidine-2,6-dione] | 100 | 78 % of control | 49 | 27
3 | O=C1CCC(n2cc(-c3cscc3OCc3ccccn3)nn2)C(=O)N1 (stereo not shown) [compound 34, 3-{4-[4-(pyridin-2-ylmethoxy)thiophen-3-yl]-1H-1,2,3-triazol-1-yl}piperidine-2,6-dione] | 97 | 95 % of control | 50 | 33
4 | O=C1CCC(n2cc(-c3cscc3OCc3cccnc3)nn2)C(=O)N1 (stereo not shown) [compound 35, 3-{4-[4-(pyridin-3-ylmethoxy)thiophen-3-yl]-1H-1,2,3-triazol-1-yl}piperidine-2,6-dione] | 70 | 100 % of control | 55 | 39
5 | O=C1CCC(n2cc(-c3cscc3OCc3ccc(CN4CCOCC4)cc3)nn2)C(=O)N1 (stereo not shown) [compound 36, 3-(4-{4-[4-(morpholinomethyl)benzyloxy]thiophen-3-yl}-1H-1,2,3-triazol-1-yl)piperidine-2,6-dione] | 98 | 59 % of control | 16 | 2
6 | COCc1ccc(COc2cscc2-c2cn(C3CCC(=O)NC3=O)nn2)cc1 (stereo not shown) [compound 37, 3-(4-{4-[4-(methoxymethyl)benzyloxy]thiophen-3-yl}-1H-1,2,3-triazol-1-yl)piperidine-2,6-dione] | 81 | 99 % of control | 24 | 17
7 | C[C@@H]1CN(Cc2ccc(COc3cscc3-c3cn(C4CCC(=O)NC4=O)nn3)cc2)C[C@H](C)O1 (stereo partly drawn) [compound 38, 3-{4-[4-(4-{[(2S,6R)-2,6-dimethylmorpholino]methyl}benzyloxy)thiophen-3-yl]-1H-1,2,3-triazol-1-yl}piperidine-2,6-dione] | 89 | 110 % of control | 24 | 5
8 | O=C1CCC(n2cc(-c3cscc3OCc3cccc(CN4CCOCC4)c3)nn2)C(=O)N1 (stereo not shown) [compound 39, 3-(4-{4-[3-(morpholinomethyl)benzyloxy]thiophen-3-yl}-1H-1,2,3-triazol-1-yl)piperidine-2,6-dione] | 81 | 98 % of control | 26 | 24
9 | O=C1CCC(n2cc(-c3cscc3OCc3ccccc3CN3CCOCC3)nn2)C(=O)N1 (stereo not shown) [compound 40, 3-(4-{4-[2-(morpholinomethyl)benzyloxy]thiophen-3-yl}-1H-1,2,3-triazol-1-yl)piperidine-2,6-dione] | 86 | 96 % of control | 35 | 33
10 | Cl.O=C1CCC(n2cc(-c3cscc3OCc3ccc(CN4CCCC4)cc3)nn2)C(=O)N1 (stereo not shown) [compound 41, 3-(4-{4-[4-(pyrrolidin-1-ylmethyl)benzyloxy]thiophen-3-yl}-1H-1,2,3-triazol-1-yl)piperidine-2,6-dione hydrochloride] | 93 | 110 % of control | 32 | 20
